Source: patent publication US20070112076A1, “Methods and materials for treating retinopathy” (SOUTHERN ILLINOIS UNIVERSITY, priority 2005, published 2007)

Experiments:
[1] = tested on: iNOS protein expression in human retinal endothelial cells; experiment: Western blot of iNOS protein expression after agonist treatment of retinal endothelial cells; type: cell-based
Method: (§1) Denaturing sample buffer (1 ml 2×GDW, 640 μl 1 M Tris-HCl, pH 6.8, 420 μl 30% glycerol, 250 μl β-mercaptoethanol, 200 μL 0.05% bromophenol blue, and 0.125 g recrystallized SDS) was added to 50 μg of protein, as determined by Bradford assay. Protein samples with sample buffer were centrifuged for 5 min to thoroughly mix the samples, followed by heat denaturation for 5 min at 100° C. Protein samples were then separated on 4-12% pre-cast tris-glycine gels (Invitrogen, Carlsbad, Calif.). Electrophoresis and immunoblotting were done as previously described (Steinle et al., J. Biol. Chem. 278 (2003) (23), pp. 20681-20686) using antibodies to iNOS (diluted 1:500, Chemicon, Temecula, Calif.) and PGE2-EP2 receptor subtype (diluted 1:500, Chemicon). Mean densitometry of immunoreactive bands was assessed using Kodak software, and results are expressed in densitometric units. A paired T-test was performed between the sympathectomized and contralateral retina with significance accepted at P<0.05.
(§2) Initial studies focused on human retinal endothelial cells, which express β-adrenergic receptors. Human microvascular retinal endothelial cells were isolated by Applied Cell Biology Research Institute and sold by Cell Systems (Kirkland, Wash.). Cells were used at passage 3-5 for all experiments. Cells were identified as endothelial cells on the basis of their cobblestone morphology. Cells were grown in attachment factor-coated Corning® dishes and in either high or low glucose media. Both high and low glucose media were identical (purchased from Cell Systems and supplemented with 20% fetal bovine serum, 100 IU/ml penicillin, 100 μg/ml streptomycin, and 0.25 μg/ml amphotericin B) except for the glucose concentration: 25 mM glucose (high glc) or 5 mM glucose (low glc). Cells were adjusted to the appropriate glucose environment for 5 days before the experiments were conducted in starvation medium. Starvation medium had the appropriate concentration of glucose and contains all of the above ingredients except that 0.2% bovine serum albumin is substituted for 20% serum.
For experiments, cells were starved for 18-24 h using starvation medium to insure that the results obtained are due to agonist stimulation, not residual effects from the serum. Following starvation, 10 μM isoproterenol (non-specific β-adrenergic receptor agonist), 10 μM xamoterol (β1-adrenergic receptor subtype agonist), or 10 μM BRL37344 (β3-adrenergic receptor subtype agonist) was placed onto dishes and allowed to act on the cells for 1, 2, or 6 h. Three dishes received no treatment and serve as not-treated controls. […] The effects of xamoterol and BRL37344 were evaluated under high glucose conditions only. […]

[2] = tested on: PKA activity in the retina; experiment: PKA ELISA on retinal lysates after eye drops; type: in vivo, rat; conditions: 4 drops of 100 μM eye drops
Method: Three groups of animals were used for these experiments. The first group was made diabetic by a single injection of 60 mg/kg streptozotocin and allowed to remain diabetic for 2.5 month and received 4 drops of 100 μM isoproterenol placed into both eyes (STZ). The other two groups were control groups, with one group being non-diabetic but receiving the 100 μM isoproterenol eye drops (Normal), and the other group not receiving any treatment (NT). At 4, 8 and 12 hours after treatment with isoproterenol, retina from the rats was assayed for PKA by ELISA and CREB by Western blot analysis. The retina of rats from each group was assayed for PKA by ELISA. Three rats were evaluated at each time point (4 hours, 8 hours and 12 hours). The PKA ELISA was carried out using the […] Protein Kinase Assay System from Upstate (Lake Placid, N.Y.). To begin the experiments, 0.1M ATP was made and set to a pH of 7.0. cAMP at a concentration of 20 μM was made with reagents purchased from Sigma Aldrich. To obtain the samples to be assayed, animals were sacrificed and the retina was removed and placed in reaction buffer supplied in the kit. One hundred microliters of each sample in reaction buffer was placed into coated wells of a 96-well plate in duplicate. […] Following application of 100 μL of stop solution to end the reaction with the substrate, the plate was read at 490 nm on a BioTek Plate Reader.

[3] = tested on: CREB protein expression in the retina; experiment: Western blot of CREB protein expression in retina after eye drops; type: in vivo, rat; conditions: 100 μM eye drops, diabetic animals, 8 hours, compared to the normal group
Method: Three groups of animals were used for these experiments. The first group was made diabetic by a single injection of 60 mg/kg streptozotocin and allowed to remain diabetic for 2.5 month and received 4 drops of 100 μM isoproterenol placed into both eyes (STZ). The other two groups were control groups, with one group being non-diabetic but receiving the 100 μM isoproterenol eye drops (Normal), and the other group not receiving any treatment (NT). At 4, 8 and 12 hours after treatment with isoproterenol, retina from the rats was assayed for PKA by ELISA and CREB by Western blot analysis.
Western blot analysis was also done to determine protein expression of CREB. Two rats were evaluated at each time point (4 hours, 8 hours and 12 hours). Animals were sacrificed and the eyes were removed. The retina was extracted and placed into lysis buffer (50 mM Tris-HCL, pH 7.4; 1% NP-40, 0.25% Na-deoxycholate; 150 mM NaCl; 1 mM EDTA; 1 mM PMSF; 1 μg/ml each of aprotinin, leupeptin, pepstatin; 1 mM Na3VO4; 1 mM NaF; 0.1% SDS). Protein lysates were homogenized and centrifuged to generate a pellet and supernatant. […] Immunoreactive bands were detected by enhanced SuperSignal (Pierce, Rockford, Ill.) and analyzed using the Kodak 2000R image station. Mean densitometry was assessed using Kodak software, and results are expressed as a percentage of the not treated eyes. […]

[4] = tested on: PGE2 levels in human retinal endothelial cells; experiment: PGE2 ELISA in retinal endothelial cells after agonist treatment; type: cell-based; conditions: low or high glucose media, 10 μM, 1, 2 or 6 h
Text: as §2, with “An ELISA assay to measure PGE2 content in cell culture supernatants and retinal samples was purchased from Endogen (Pierce Biotechnology, Rockford, Ill.) and used according to the manufacturer's instructions. Initial” for “Initial”, “serum. […] The effects of xamoterol and BRL37344 were evaluated under high glucose conditions only.” for “serum.”

[5] = tested on: PGE2-EP2 receptor subtype expression in human retinal endothelial cells; experiment: Western blot of PGE2-EP2 receptor subtype expression in retinal endothelial cells; type: cell-based; conditions: low or high glucose media, 10 μM, 1, 2 or 6 h
Method: as §1
Initial studies focused on human retinal endothelial cells, which express β-adrenergic receptors. […]
For experiments, cells were starved for 18-24 h using starvation medium to insure that the results obtained are due to agonist stimulation, not residual effects from the serum. […] The effects of xamoterol and BRL37344 were evaluated under high glucose conditions only. […]

retina = conditions: osmotic pump in the rat; cited from earlier work
[6] = high glucose medium, 10 μM, 1, 2 or 6 h, vs. NT

C[C@H](Cc1ccc(OCC(=O)O)cc1)NC[C@H](O)c1cccc(Cl)c1 [BRL37344]
iNOS protein expression [1, 6]: no effect

CC(C)NCC(O)c1ccc(O)c(O)c1 (centres unmarked) [isoproterenol]
PKA activity in retina ([2]; 12 hours after treatment): significantly increased at 12 hours after treatment relative to the normal, but not when compared to the not treated group
PKA activity in retina ([2]; STZ diabetic rats, 8-hour time point, P<0.05 vs. not-treated and vs. normal): significantly increased
CREB protein expression in retina [3]: substantial increase
PGE2 protein levels [4]: did not affect
PGE2-EP2 receptor subtype expression [5]: did not affect
iNOS protein expression ([1]; high glucose (25 mM) medium, 10 μM, 6 h, P<0.05 vs. not treated): significantly reduced
iNOS protein expression ([1]; low glucose (5 mM) medium, 10 μM, 6 h, P<0.05 vs. not treated): upregulation

Cc1ccc(N(CC2=NCCN2)c2cccc(O)c2)cc1 [phentolamine]
retinal changes as observed after sympathectomy (retina): no effect

CC(C)NCC(O)COc1cccc2ccccc12 (centres unmarked) [propranolol]
retinal changes as observed after sympathectomy (retina): can be mimicked

O=C(NCCNCC(O)COc1ccc(O)cc1)N1CCOCC1 (centres unmarked) [xamoterol]
iNOS protein expression [1, 6]: decreased iNOS protein expression
